Data set [1] has as its system MDA-MB-468 cells. Briefly: Cell based ROS scavenging assay. To be noted: then RB4 10 μM 1 h, US 1 MHz, 1 W/cm^2, 30 s, MTS one day later; for protective effect of ROS scavenger: scavenger pretreatment 30 min. As for the experimental part:
Ceil based ROS scavenging assay: MDA-MB-468 cells (5×10^4) were treated with free radical scavengers, L-histidine (10 mM), D-mannitol (100 mM), N-acetyl cysteine (NAC, 0.5 mM), and superoxide dismutase (SOD, 100 μg/mL) for 30 minutes. The treated cells were then incubated with fresh media containing RB4 (10 μM) for an hour. After incubation, the wells were insonated (1 MHz, 1 W/cm^2, 30 sec, 100% DC) as described above. One day later, the cell's viability was assessed using the MTS solution.

Data set [2] can be described thus: Absorption and emission spectra. In kind it is physicochemical.
Another data set concerns MDA-MB-468. Briefly: Toxicity of RB4 to cells (IC50). To be noted: Homo sapiens, RB4 alone. Type of data set: cell-based.
In data set [3] the test system is MDA-MB-468 breast cancer xenograft tumor. The experiment in a line: In vivo SMRT effect using preloaded tumor cells. As for the experimental part: In vivo sono-membrane rupture therapy (SMRT) effect using preloaded tumor cells: MDA-MB-468 cells were suspended in PBS or RB4 (10 μM) in PBS for 1 day. The cells (5×10^6, 0.1 mL) were subcutaneously injected into both flanks. The left tumors, which were only treated with PBS, were the internal control; while the right tumors were treated with RB4 (10 μM) only, ultrasound only (1 MHz, 1 W/cm^2, 100% DC, 3 minutes), or an RB4-ultrasound combination (n=7). The transducer size was 0.75 cm^2. Tumor size was measured with slide calipers on days 7,10, 14,17,21,24, 28, and 36.

For data set [4], the system named is MDA-MB-468 cells. Briefly: Sonotoxicity with RB4: microscopy and MTS viability assay at 24 hours. Type of data set: cell-based. As for the experimental part: Sonotoxicity with RB4: MDA-MB-468 ceils (5×10^4) in 24 well plates were incubated in complete media with 10 μM RB4 for 1 hour prior to the ultrasound treatment. The plates were then placed on a pre-cut gel pad (2 cm×3 cm) with multipurpose ultrasound gel over a mounted handheld ultrasound transducer (5 cm^2) at 1 MHz, 1 W/cm^2 for 30 s, 100% DC. Cells were checked under an EVOS® FL Auto Cell Imaging system microscope. Cell viability at 24 hours was quantitated using an MTS assay. The plate was incubated at 37° C. for 4 hours. Absorbance was measured at 490 nm using a microplate reader.
(Formazan colour is commonly taken as a measure of viable cells.)

Data set [5] concerns MDA-MB-468 cells. Briefly: Mechanistic study of death process by flow cytometry (Annexin V / propidium iodide). In kind it is cell-based. The conditions noted are these: RB4 10 μM + US 1 MHz, 1 W/cm^2, 30 s; one day after treatment. The method, then: Mechanistic study of death process by flow cytometry: MDA-MB-468 cells (5×10^4) were incubated in complete media with or without 10 μM RB4 for 1 hour prior to ultrasound treatment. Then the plates were insonated at 1 MHz, 1 W/cm^2, 30 sec, 100% duty cycle. Following treatment, cells were re-incubated for 1 day, 4 groups of cells (Control, RB4 alone, ultrasound alone, and RB4 combined with ultrasound) were collected and washed twice with pre-cooled PBS. Cells were stained with FITC-conjugated Annexin-Y and propidium iodide for 15 minutes as per the manufacture's instructions, and then analyzed by flow cytometry. The percentage of dead cells and those undergoing apoptosis were analyzed using flow ‘cytometry’ analysis software.
In general terms: A flow cytometer gives signals particle by particle.

Data set [6] in a line: Chemical ROS assay (DCFH-DA) in solution under insonation. The conditions noted are these: RB4 + DCFH solution insonated with different ultrasound powers, 30 s. As for the experimental part:
Chemical ROS assay: To study the insonation induced ROS generation in solution, RB4 was tested using a modified 2′, 7′-dichlorofluorescin diacetate (DCFH-DA) assay. DCFH-DA (1 ml, 1 mM in MeOH) was hydrolyzed in NaOH aqueous solution (0.01N, 4 mL) at RT for 30 minutes to yield anon-fluorescent DCFH intermediate. The solution was neutralized with 20 mL of NaH2PO4 (25 mM) and shielded with aluminum foil. The final solution of DCFH was around 40 μM. RB4 (1.0 mg) was dissolved in DMSO (1 mL) and then diluted with water into a 20 μM solution. The RB4 solution (20 μM, 10 mL) was mixed with a DCFH solution (40 μM, 10 mL) as the test solution. The test solution (0.5 mL) was placed into each well of a 24-well plate. The DCFH solution without RB4 was included as a background control. The plates were treated with ultrasound (0.4-1.2 watt/cm^2) one well by one well for 30 seconds: and the insonated wells were then checked using a fluorescence plate reader, ex 485 nm/em 520 nm.

Data set [7] has as its system MDA-MB-468 xenograft tumor. The experiment in a line: In vivo SMRT effect with intra-tumoral injected RB4, histochemical analysis. Set-up: species or system BALB/c Nu/Nu female nude mice. The conditions noted are these: two days after treatment. The method, then:
(§1) In vivo SMRT effect with intra-tumoral injected RB4: MDA-MB-468 cells (10^7, 0.1 mL PBS) were subcutaneously inoculated into both flanks of BALB/c Nu/Nu female nude mice (5-6 weeks). The RB4 injections and ultrasound therapies were performed when the tumors had grown to approximately 4-5 mm in diameter, 20-22 days after inoculation. The tumors were treated with RB4 (10 μM, 50 μl) only, ultrasound only (1 MHz, 1 W cm2, 100% DC, 3 minutes), and a RB4-ultrasound combination (n=5), Under isoflurane anesthesia, RB4 was directly injected to the tumors of the mice. The ultrasound treatment was then performed immediately after the injection of RB4, with same transducer size. The same RB4-ultrasound treatment was performed on the thigh muscles of the mice. Histochemical analysis: Tumors and muscle tissue were harvested 2 days after therapy and the specimens were fixed in 10% formalin, cut in half, and embedded in paraffin. The paraffin sections (7 μm thick) were stained with hematoxylin-eosin (H&E). ImageJ 1.48 was used to measure the size of whole tumor and necrotic areas in the tumors.

For another data set, the system named is HT1080, fibrosarcoma. Briefly: Sono-sensitivity of RB4 in a second cell line. In kind it is cell-based. The conditions noted are these: RB4 + ultrasound.
Data set [8] relates to thigh muscle (normal muscle tissue). Briefly: Same RB4-ultrasound treatment on thigh muscle, histochemical analysis. The conditions noted are these: RB4 + US 1 MHz, 1 W/cm^2, 3 min applied to thigh muscle; two days after treatment. Type of data set: in vivo, BALB/c Nu/Nu female nude mice. The method, then: as §1
For a further data set, the system named is HT-1080. Briefly: Toxicity of RB4 to cells (IC50). Type of data set: cell-based. To be noted: Homo sapiens, RB4 alone.

“Also recorded” adds a separate entry of the source. A value given as a limit tells only on which side of the number the result lay.

With `OC[C@@H](O)[C@@H](O)[C@H](O)[C@H](O)CO` [D-mannitol], in the data set with MDA-MB-468 cells [1], the “protective effect of ROS scavenger” value is “none, with the exception of NAC, showed any protective effects”.

Regarding `CC(=O)N[C@@H](CS)C(=O)O` [NAC, N-acetyl cysteine], the “fraction of cells rescued from RB4 and ultrasound combination treatment” value in the data set on MDA-MB-468 cells [1] (scavenger pretreatment 30 min (NAC 0.5 mM)) was around 20%. The “protective effect of ROS scavenger” value in the data set with MDA-MB-468 cells [1] is “able to rescue a fraction of cells”.

Consider `O=C1OC2(c3cc(I)c(O)c(I)c3Oc3c2cc(I)c(O)c3I)c2c(Cl)c(Cl)c(Cl)c(Cl)c21` [RB, Rose Bengal], for which, in [2], the absorption maximum came out at 549 nm and the emission maximum turned out to be 565 nm.

As to `O=C(NCCO)c1c(Cl)c(Cl)c(Cl)c(Cl)c1-c1c2cc(I)c(=O)c(I)c-2oc2c(I)c(O)c(I)cc12` [RB4, 2,3,4,5-tetrachloro-6-(6-hydroxy-2,4,5,7-tetraiodo-3-oxo-3H-xanthen-9-yl)-N-(2-hydroxyethyl)-benzamide], the half-inhibitory concentration (IC50) (usually the concentration that gives 50% inhibition) in the data set on MDA-MB-468 was determined as 71 µM; with HT-1080 it was 157 µM. The “tumor growth inhibition (in words)” value is “significant growth arrest” in data set [3] (RB4 10 μM + US 1 MHz, 1 W/cm^2, 3 min, N=7) and “about the same as the untreated group; also recorded: no appreciable inhibition effect” in [3] (RB4 alone 10 μM). Besides, the “average tumor size relative to control untreated tumor” value in data set [3] (RB4 10 μM preloaded cells + US 1 MHz, 1 W/cm^2, 3 min, up to 36 days) is given as “about 20%”. Also, in data set [3] (RB4 alone (cells pre-incubated with 10 μM for 1 day), up to 36 days), the “growth rate ratio of treated vs. untreated tumors” value was “≈ 1”. Besides, the cells killed entry is “over 90%” with MDA-MB-468 cells [4] (RB4 10 μM 60 min + ultrasound 1 MHz, 1 W/cm^2, 30 s, viability one day later) and 95% in the data set with HT1080, fibrosarcoma. In addition, the “cell damage in microscopic images” value with MDA-MB-468 cells [4] (RB4 10 μM + ultrasound 1 MHz, 1 W/cm^2, 30 s) is “significant damage”; in the data set with MDA-MB-468 cells [4] (RB4 alone 10 μM, versus untreated), “Little difference”. Also, the cell viability with MDA-MB-468 cells [4] (RB4 alone 10 μM, 60 min, no ultrasound, MTS one day later) was above 80 % viable. The PI positive cells in the data set on MDA-MB-468 cells [5] stood at 3%. The annexin positive cells in the data set on MDA-MB-468 cells [5] is recorded as 8%. In addition, the “annexin/PI double positive cells” value in the data set with MDA-MB-468 cells [5] is 36%. In addition, the “ROS level of RB4 solution” value in data set [6] was “not significantly different from the background level”. Also, the necrotic area in [7] (RB4 50 μL, 10 μM intratumoral + US 1 MHz, 1 W/cm^2, 3 min) is on record as around 40%. The “necrosis on HE staining (in words)” value in data set [7] (RB4 50 μl, 10 μM intratumoral + US 1 MHz, 1 W/cm^2, 3 min) is recorded as “A large necrotic area”. For the same molecule, the “tissue damage on HE staining (in words)” value in data set [7] (RB4 alone 50 μl, 10 μM intratumoral) is on record as “Little effect; also recorded: little tissue damage”. Further, the “damage to normal muscle tissue” value in data set [8] is recorded as “maintained their normal structures without damage; also recorded: no damaged cells were found”. The “absorption and emission (in words)” value in [2] was “neither absorption nor emission above 400 nm”.

As to `N[C@@H](Cc1c[nH]cn1)C(=O)O` [L-histidine], the “protective effect of ROS scavenger” value with MDA-MB-468 cells [1] is given as “none, with the exception of NAC, showed any protective effects”.

With superoxide dismutase, the “protective effect of ROS scavenger” value with MDA-MB-468 cells [1] is recorded as “none, with the exception of NAC, showed any protective effects”.

(Values after US11975071B2, “Tumor ablation using low-intensity ultrasound and sound excitable drug” (CORNELL UNIVERSITY, priority 2018, dated 2024).)
